{"source": "patent US20250305018A1", "about": "“SYNTHESIS OF GLYCOSYLATED HYDROXYTRYPTAMINE COMPOUNDS AND METHODS OF THEIR USE” (Cy Biopharma AG, priority 2022, published 2025)", "key": {"[1]": {"test": "Pharmacokinetic experiment in mice, brain tissue concentrations by LC-MS/MS", "assay_type": "in vivo, C57Bl/6J mice", "conditions": "higher doses, oral, compared to psilocybin", "method": "(§1) In a pharmacokinetic experiment in C57Bl/6J mice (3 animals per timepoint; schedule shown below) two example compounds, Cy1 (4-HO-EPT glycoside) and Cy2 (4-HO-DMT glycoside) were dosed at two different concentrations (20 mg/kg dose shown here) and the parent compounds and their de-glycosylated forms, 4-HO-EPT and psilocin (4-HO-DMT), respectively, were measured by LC-MS/MS in plasma and brain tissue samples. For comparison, psilocybin was dosed at 1.5 mg/kg orally and plasma and brain tissue concentrations of psilocin (4-HO-DMT) were measured. Samples were collected at four or five different timepoints (from 10-minutes post dosing up to 6-hours post dosing) following the test article administration.\n(§2) Results are reported in ng/mL for the concentration in plasma and in ng/g tissue for the concentration measured in brain samples.\n(§3) Results: The graphs in FIG. 35, FIG. 36, FIG. 37, and FIG. 38 display the time course of concentrations of compounds as indicated. For each time point the data for the individual animals are plotted."}, "[2]": {"test": "Pharmacokinetic experiment in mice, plasma concentrations by LC-MS/MS", "assay_type": "in vivo, C57Bl/6J mice", "conditions": "higher doses, oral, compared to psilocybin", "method": "as §1, §2, §3"}}, "data": [{"smiles": "CCCN(CC)CCc1c[nH]c2cccc(O[C@@H]3O[C@H](CO)[C@@H](O)[C@H](O)[C@H]3O)c12", "note": "[Cy1, 4-HO-EPT glycoside]", "values": [{"measurement": "period of exposure, brain", "setting": "[1]", "result": "extended"}, {"measurement": "period of exposure, plasma", "setting": "[2]", "result": "extended"}]}]}
